What was measured:
[1] = test system: traumatic brain injury (TBI) patients; test: Oral glyceryl tris(3-hydroxybutyrate) with standard non-restricted diet in individual TBI patients (case examples); type: in vivo, human; settings: for Clinical status at follow-up: day 7 of regimen
Procedure: A 60 kg person presents with TBI due to a minor car accident. On initial examination, within 1 hour of the accident, moderate TBI is determined by EMT at the scene, on the basis disorientation and of the Glasgow Coma Scale (9-13). The patient is conscious, is hyperglycemic and able to orally ingest the ester. The patient is started on 0.5 g/kg/day glyceryl tris(3-hydroxybutyrate) orally in 3 divided doses (i.e., 10 g per serving 3 times a day). The patient is transported to a medical facility and allowed to ingest a standard diet lunch, having no glucogenic caloric restriction. […] The patient completes the regimen.
A 70 kg (boxer) presents with a sports injury concussion after having a history of 3 similar concussions over the past year. The past concussions are treated by standard medical practice without the use of ketogenic diet, starvation, or the esters of use in the present invention. The most recent concussive injury occurs 2 hours before the patient being brought into a hospital for treatment. The patient is immediately examined and determined to be hyperglycemic and to have a moderate concussive injury (on the basis of short term loss of consciousness, their lingering disorientation, and a Glasgow Coma Scale score of 9-13). The patient is started on 2.0 g/kg/day glyceryl tris(3-hydroxybutyrate) in three divided dose (i.e.. 46.7 g per serving 3 times a day) and permitted an ordinary standard oral diet not having glucogenic caloric restrictions for a 70 kg person. Treatment continues for 3 days.
The patient in Example 3, knowing that further concussive incidents are likely requests advice as to minimizing the effects of further concussive incidents. The patient is told to restart the glyceryl tris(3-hydroxybutyrate) regimen at least one meal period before partaking in the activity likely to result in a concussive injury. The patient has such serving at a 5 PM dinner and is in a match at 7 PM. The patient does in fact suffer a further TBI which once again is upon examination at the scene is determined to be a moderate TBI, however, the patient is euglycemic. On transport to a medical facility, the patient is re-examined and confirm that they have suffered another moderate TBI. The patient is started on 2.0 g/kg/day glyceryl tris(3-hydroxybutyrate) in three divided doses 46.7 g per serving 3 times a day) and permitted an ordinary standard oral diet not having glucogenic caloric restrictions for a 70 kg person. […] The patient is advised to continue with the glyceryl tris(3-hydroxybutyrate) regimen as in Example 3 for 6 days and return for re-evaluation. The patient maintains the regimen for 3 days instead of the recommended 6 and reports no adverse or lingering effects from the TBI.
The patients in Examples 2, 4, and 5 on re-evaluation are immediately started on the regimens referred to in Examples 1, 3, and 3 respectively for 7 days, and directed to return for re-evaluation on the 7th day of the newly started regimen. […] However, the improvement is not as complete as the patients in Examples 1 or 3.
A 30 kg child is brought to the emergency room with moderate to severe TBI (as per the Modified Glasgow Coma Scale) due to a playground fall, is hyperglycemic, is unconscious, is intubated, and begun on a regimen of 30 g twice daily of glyceryl tris(3-hydroxybutyrate) and further fed standard normal enteral diet. The regimen is continued for 7 days and re-evaluated at that time. […] The treatment is continued, with re-evaluation set for 7 days later.

[2] = test system: traumatic brain injury (TBI) patients; test: Group comparisons of TBI patients / military personnel given glyceryl tris(3-hydroxybutyrate) versus matched patients; type: in vivo, human
Procedure: The patients are followed up approximately 6 months, after the TBI.
Military personnel having closed TBIs due to vehicular accidents or IEDs or other battlefield causes are evaluated for the severity of their TBIs and, where glyceryl tris(3-hydroxybutyrate) is available for administration, are started on a regimen of […] in 2 or 3 divided doses for 7 days (which regimen is generally started within 2 or 3 hours of injury) and then re-evaluated at day 7 to assess whether further treatment for the TBI is warranted. These are compared with comparably injured military personnel where access to the glyceryl tris(3-hydroxybutyrate) was not available for administration within the first week after injury.
In light of Example 10, combat troops and medics associated therewith are provided with glyceryl tris(3-hydroxybutyrate) to take into the field for use in triage in the case of mild-moderate closed TBI situations.
In light of Examples 10 and 11, combat troops are routinely given a morning dose of glyceryl tris(3-hydroxybutyrate) while in combat zones in case they suffer a mild to moderate non-penetrating closed TBI. For those troops that do suffer such TBIs within 12 hours of administration, their recovery, both acutely and longer term, is improved as compared to those only receiving the glyceryl tris(3-hydroxybutyrate) administration upon injury, after being matched for injury severity. Similar comparatives between those getting variously identical regimens of glyceryl tris(3-hydroxybutyrate) post-injury other than the single prophylactic dose prior to injury, with those receiving the preinjury dose faring better than those not receiving it, and further those whose injury is closer in time to the administration (1-2 hours post administration) faring better than those being injured further in time form the administration (10-12 hours post-administration).

CC(O)CC(=O)OCC(COC(=O)CC(C)O)OC(=O)CC(C)O (stereo not drawn) [glyceryl tris(3-hydroxybutyrate)]
Disorientation ([1]; Example 1: 60 kg female, moderate TBI (Glasgow Coma Scale 9-13), 0.5 g/kg/day orally in 3 divided doses, standard diet, after 2 days): recovered from their disorientation | Clinical status at follow-up ([1]; Example 1: 60 kg female, moderate TBI, 0.5 g/kg/day orally in 3 divided doses, normal meals): fully recovered | Glycemic status ([1]; Example 1: patient hyperglycemic at presentation, 0.5 g/kg/day, from shortly after ester administration through end of treatment and beyond): euglycemic | Clinical status at follow-up ([1]; Example 3: 70 kg male boxer, 2.0 g/kg/day in three divided doses, standard oral diet): fully recovered | Glycemic status ([1]; Example 3: patient hyperglycemic at presentation, 2.0 g/kg/day, from shortly after ester administration through end of treatment): euglycemic | Adverse effects of the TBI the next day ([1]; Example 6: pre-injury serving, then 2.0 g/kg/day in three divided doses, the next day): no adverse effects | Symptoms on reexamination ([1]; Example 6: regimen maintained for 3 days instead of the recommended 6): no symptoms are seen | Glycemic status at examination after further TBI ([1]; Example 6: serving taken at 5 PM dinner before a 7 PM match (pre-injury dose), moderate TBI): euglycemic | Clinical status at end of treatment ([1]; Example 8: 30 kg child, 30 g twice daily, after an additional 3 days of treatment): fully recovered | Consciousness ([1]; Example 8: 30 kg child, 30 g twice daily, day 4 of continued treatment): regains consciousness | Clinical symptoms ([1]; Example 8: 30 kg child, moderate to severe TBI, unconscious, intubated, 30 g twice daily, standard enteral diet, after 7 days): show improvement, but are not yet in normal ranges | Long term effects of TBI ([2]; Example 9: moderate TBI, given with normal meals 2 or 3 times a day for one or two weeks, follow-up approximately 6 months after TBI, vs ketogenic diet or starvation): minimal, if not non-existent | Recovery from acute symptoms and long-term post-concussive syndrome symptoms vs those not receiving it ([2]; Example 10: military personnel, closed TBI, 0.5 mg/kg/day to 2.0 mg/kg/day in 2 or 3 divided doses for 7 days, started within 2 or 3 hours of injury): fare much better | Outcome vs treatment as in Example 10 ([2]; Example 11: mild-moderate closed TBI, given within minutes of suffering the TBI): fare even better | Recovery, acutely and longer term, vs administration only upon injury ([2]; Example 12: combat troops, morning prophylactic dose, TBI within 12 hours of administration, matched for injury severity): improved
